Results reported in patent US20230212549A1, “COMPOUNDS COMPRISING A […] LIGAND AND USE THEREOF” (priority 2021, published 2023).
Each block holds one compound with its values, some of them ahead of it. Numbered stars: 1 amine (or outer) side, 2 acyl side, 3 side chain; on linkers, the order of the positions; unused ones are H or OH. Bridge positions count the residues as written; N and C are the ends. Square brackets hold non-standard residues; d marks the D form. Peptide text beside a SMILES is read from it. * marks the point of attachment. ξ: configuration not given here. TBMB(SCH2CH2NH-DOTA) = O=C(O)CN1CCN(CC(=O)O)CCN(CC(=O)NCCSCc2cc(C[*:1])cc(C[*:2])c2)CCN(CC(=O)O)CC1; X11 = O=C(O)CN1CCN(CC(=O)O)CCN(C(CCC(=O)NCCSCc2cc(C[*:1])cc(C[*:2])c2)C(=O)O)CC1; Pentanesulfonyl = CCCCCS(=O)(=O)*; CO = O=C([*:1])[*:2]; ξC = NC(CS)C(=O)O; NHBu = CCCCN*

What was measured:
in vivo = settings: female, athymic nude, mouse, iv
[1] = target: T1, FAP-expressing human WI-38 fibroblasts (Homo sapiens, UniProt Q12884); assay: Competitive FACS binding assay
T1 construct: FAP-expressing human WI-38 fibroblasts (ECACC) were cultured in EMEM; host or cells: WI-38 human fibroblasts
Method: Cells were analyzed in an Attune NxT flow cytometer. […] […].
Cells were analyzed in an Attune NxT flow cytometer. […]

Human recombinant FAP = Human recombinant FAP (Homo sapiens, UniProt Q12884); assay: FRET-based FAP protease activity assay; assay type: biochemical; parameters: purchased R&D systems 3715-SE
[2] = pIC50 Category (activity), Recombinant human FAP
[3] = pIC50 Category (Activity), FRET-based FAP protease activity assay, recombinant human FAP, 37° C.
[4] = pIC50 Category (Activity), FRET-peptide substrate, 37° C.

Sequence of Human recombinant FAP (Q12884 whole entry): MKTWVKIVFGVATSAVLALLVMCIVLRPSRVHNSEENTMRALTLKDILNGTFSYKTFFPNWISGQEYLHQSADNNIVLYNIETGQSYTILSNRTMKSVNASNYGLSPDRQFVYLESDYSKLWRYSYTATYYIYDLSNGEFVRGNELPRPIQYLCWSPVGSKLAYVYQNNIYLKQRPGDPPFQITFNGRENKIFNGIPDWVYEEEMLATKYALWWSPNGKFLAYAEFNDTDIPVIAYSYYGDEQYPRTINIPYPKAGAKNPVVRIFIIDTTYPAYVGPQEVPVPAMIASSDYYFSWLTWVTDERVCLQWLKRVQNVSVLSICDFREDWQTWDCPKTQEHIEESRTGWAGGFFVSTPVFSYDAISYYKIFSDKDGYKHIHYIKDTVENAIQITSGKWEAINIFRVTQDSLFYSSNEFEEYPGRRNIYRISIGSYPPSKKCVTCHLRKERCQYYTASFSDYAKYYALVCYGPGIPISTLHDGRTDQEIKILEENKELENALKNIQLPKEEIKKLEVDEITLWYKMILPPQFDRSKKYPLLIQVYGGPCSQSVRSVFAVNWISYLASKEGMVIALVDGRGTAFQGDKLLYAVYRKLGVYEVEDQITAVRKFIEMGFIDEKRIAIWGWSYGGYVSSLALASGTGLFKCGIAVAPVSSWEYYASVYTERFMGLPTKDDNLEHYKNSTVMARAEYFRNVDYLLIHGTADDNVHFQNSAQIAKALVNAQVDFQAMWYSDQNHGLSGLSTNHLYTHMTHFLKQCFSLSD
T1 sequence (Q12884 whole entry): as above

SMILES: CCCCNC(=O)N[C@H]1CSCc2cc(CSCCNC(=O)CCC(C(=O)O)N3CCN(CC(=O)O)CCN(CC(=O)O)CC3)cc(c2)CSCC(C(=O)O)NC(=O)[C@H](Cc2ccccc2)NC(=O)[C@H](CCC(=O)O)NC(=O)[C@H]([C@@H](C)O)NC(=O)[C@@H]2CCCN2C(=O)[C@@H]2CCCN2C1=O (stereo partly drawn) [3BP-4724, nBu-CAyl-[Cys(tMeBn(NODAGA-AET))-Pro-Pro-Thr-Glu-Phe-Cys]-OH] ({NHBu-CO}-CPPTEF[ξC]-OH; linker 1-7 via X11)
- tissue uptake at 0.25 h (in vivo; blood pool surrogate (BPS), uptake BPS 0.25 h, ^68Ga-labeled, BPS (blood pool surrogate), PET/CT, 0.25 h post tracer injection): 2.17 %ID/g
- tissue uptake at 1 h (in vivo; blood pool surrogate (BPS), uptake BPS 1 h, ^68Ga-labeled, BPS (blood pool surrogate), PET/CT, 1 h post tracer injection): 1.04 %ID/g
- tissue uptake at 3 h (in vivo; blood pool surrogate (BPS), uptake BPS 3 h, ^68Ga-labeled, BPS (blood pool surrogate), PET/CT, 3 h post tracer injection): 0.49 %ID/g
- tissue uptake at 0.25 h (in vivo; kidneys, uptake Kidneys 0.25 h, ^68Ga-labeled, PET/CT, 0.25 h post tracer injection): 4.28 %ID/g
- tissue uptake at 1 h (in vivo; kidneys, uptake Kidneys 1 h, ^68Ga-labeled, PET/CT, 1 h post tracer injection): 1.87 %ID/g
- tissue uptake at 3 h (in vivo; kidneys, uptake Kidneys 3 h, ^68Ga-labeled, PET/CT, 3 h post tracer injection): 0.86 %ID/g
- tissue uptake at 0.25 h (in vivo; tumor, uptake Tumor 0.25 h, ^68Ga-labeled, HEK-FAP tumor, PET/CT, 0.25 h post tracer injection): 3.87 %ID/g
- tissue uptake at 1 h (in vivo; tumor, uptake Tumor 1 h, ^68Ga-labeled, HEK-FAP tumor, PET/CT, 1 h post tracer injection): 4.37 %ID/g
- tissue uptake at 3 h (in vivo; tumor, uptake Tumor 3 h, ^68Ga-labeled, HEK-FAP tumor, PET/CT, 3 h post tracer injection): 4.46 %ID/g
- IC50 [1]: < 10 nM
- IC50 (Human recombinant FAP; [2]): 10 to 79.4 nM

SMILES: CCCC[C@H](NC(=O)CCC(=O)NCCCOCCOCCOCCCNC(=O)CCC(C(=O)O)N1CCN(CC(=O)O)CCN(CC(=O)O)CC1)C(=O)N[C@H]1CSCc2cccc(c2)CSCC(C(=O)O)NC(=O)[C@H](Cc2ccccc2)NC(=O)[C@H](CCC(N)=O)NC(=O)[C@H]([C@@H](C)O)NC(=O)[C@@H]2CCCN2C(=O)[C@@H]2CCCN2C1=O (stereo partly drawn) [3BP-4714, NODAGA-Ttds-Nle-[Cys(3MeBn)-Pro-Pro-Thr-Glu-Phe-Cys]-OH]
- tissue uptake at 0.25 h (in vivo; blood pool surrogate (BPS)): 1.52 %ID/g
- tissue uptake at 1 h (in vivo; blood pool surrogate (BPS)): 0.65 %ID/g
- tissue uptake at 3 h (in vivo; blood pool surrogate (BPS)): 0.32 %ID/g
- tissue uptake at 0.25 h (in vivo; kidneys): 5 %ID/g
- tissue uptake at 1 h (in vivo; kidneys): 3.82 %ID/g
- tissue uptake at 3 h (in vivo; kidneys): 3.83 %ID/g
- tissue uptake at 0.25 h (in vivo; tumor): 5.15 %ID/g
- tissue uptake at 1 h (in vivo; tumor): 5.44 %ID/g
- tissue uptake at 3 h (in vivo; tumor): 5.49 %ID/g
- IC50 [1]: 10 to 79.4 nM
- IC50 (Human recombinant FAP; [2]): 10 to 79.4 nM

- IC50 [1]: < 10 nM
- IC50 (Human recombinant FAP; [3]): 10 to 79.4 nM
SMILES: CCCCCS(=O)(=O)N[C@H]1CSCc2cc(CSCCNC(=O)CN3CCN(CC(=O)O)CCN(CC(=O)O)CCN(CC(=O)O)CC3)cc(c2)CSC[C@@H](C(=O)O)NC(=O)[C@H](Cc2ccccc2)NC(=O)[C@H](CCC(=O)O)NC(=O)[C@H]([C@@H](C)O)NC(=O)[C@@H]2CCCN2C(=O)[C@@H]2CCCN2C1=O [3BP-3691, Pentyl-SO2-[Cys(tMeBn(DOTA-AET))-Pro-Pro-Thr-Glu-Phe-Cys]-OH] (Pentanesulfonyl-CPPTEFC-OH; linker 1-7 via TBMB(SCH2CH2NH-DOTA))

- IC50 [1]: 10 to 79.4 nM
- IC50 (Human recombinant FAP; [4]): 10 to 79.4 nM
SMILES: C[C@@H](O)[C@@H]1NC(=O)[C@@H]2CCCN2C(=O)[C@@H]2CCCN2C(=O)[C@@H](NC(=O)[C@@H]2CCCO2)CSCc2cc(CSCCNC(=O)CN3CCN(CC(=O)O)CCN(CC(=O)O)CCN(CC(=O)O)CC3)cc(c2)CSC[C@@H](C(=O)O)NC(=O)[C@H](Cc2ccccc2)NC(=O)[C@H](CCC(N)=O)NC1=O [3BP-3936, Sth-[Cys(tMeBn(DOTA-AET))-Pro-Pro-Thr-Gln-Phe-Cys]-OH]

- IC50 [1]: < 10 nM
- IC50 (Human recombinant FAP; [4]): 10 to 79.4 nM
SMILES: C=CCCOC(=O)N[C@H]1CSCc2cc(CSCCNC(=O)CN3CCN(CC(=O)O)CCN(CC(=O)O)CCN(CC(=O)O)CC3)cc(c2)CSC[C@@H](C(=O)O)NC(=O)[C@H](Cc2ccccc2)NC(=O)[C@H](CCC(N)=O)NC(=O)[C@H]([C@@H](C)O)NC(=O)[C@@H]2CCCN2C(=O)[C@@H]2CCCN2C1=O [3BP-3916, Bulloc-[Cys(tMeBn(DOTA-AET))-Pro-Pro-Thr-Gln-Phe-Cys]-OH]

- IC50 [1]: > 1000 nM
- IC50 (Human recombinant FAP; [3]): 100 to 794 nM
SMILES: C[C@@H](O)[C@@H]1NC(=O)[C@@H]2CCCN2C(=O)[C@@H]2CCCN2C(=O)[C@@H](NC(=O)Cc2ccncc2)CSCc2cccc(c2)CSC[C@@H](C(N)=O)NC(=O)[C@H](Cc2ccccc2)NC(=O)[C@H](CCC(N)=O)NC1=O [3BP-3762, 4Pya-[Cys(3MeBn)-Pro-Pro-Thr-Gln-Phe-Cys]-NH2]

SMILES: CCCCCC(=O)N[C@H]1CSCc2cc(CSCCNC(=O)CCP(=O)(O)CN3CCN(CP(=O)(O)CO)CCN(CP(=O)(O)CO)CC3)cc(c2)CSCC(C(N)=O)NC(=O)[C@H](Cc2ccccc2)NC(=O)[C@H](CCC(N)=O)NC(=O)[C@H]([C@@H](C)O)NC(=O)[C@@H]2CCCN2C(=O)[C@@H]2CCCN2C1=O (stereo partly drawn) [3BP-4729, Hex-[Cys(tMeBn(NOPO-AET))-Pro-Pro-Thr-Gln-Phe-Cys]-NH2]
- IC50 [1]: < 10 nM
- IC50 (Human recombinant FAP; [2]): < 10 nM

- IC50 [1]: 100 to 794 nM
- IC50 (Human recombinant FAP; [4]): 10 to 79.4 nM
SMILES: CCCC[C@H](NC(=O)CCC(=O)NCCCOCCOCCOCCCNC(=O)[C@H](CCC(=O)NC[C@H](O)[C@@H](O)[C@H](O)[C@H](O)CO)NC(=O)[C@H](CCC(=O)NC[C@H](O)[C@@H](O)[C@H](O)[C@H](O)CO)NC(=O)C(CNCCN)CNCCN)C(=O)N[C@H]1CSCc2cccc(c2)CSC[C@@H](C(=O)O)NC(=O)[C@H](Cc2ccccc2)NC(=O)[C@H](CCC(N)=O)NC(=O)[C@H]([C@@H](C)O)NC(=O)[C@@H]2CCCN2C(=O)[C@@H]2CCCN2C1=O [3BP-4265, N4Ac-Glu(AGLU′)-Glu(AGLU′)-Ttds-Nle-[Cys-(3MeBn)-Pro-Pro-Thr-Gln-Phe-Cys]-OH]
